Laboratory results taken from US5912230A, “Anti-fungal and anti-bacterial histatin-based peptides” (priority 1998, dated 1999).
Where no end group is shown, it is not given here.

Experiments:
[1] = tested on: C. albicans blastoconidia; conditions: blastoconidia, 1 h at 37° C., pH 7.4
Description: C. albicans is a dimorphic yeast. It can exist in a yeast or blastoconidial form, which upon germination develops into the hyphal or germinated form. While the germinated form is considered to be more invasive, most of the C. albicans isolates harvested from the oral cavities of healthy individuals appear to be in the blastoconidial form. (Arendorf, T. M. et al. (1980), Arch. Oral Biol. 25:1-10; Gow, N.A.R. et al. (1987), Criti. Rev. Microbiol. 15:73-78; Odds, F. C. (1988), Candida and Candidosis, 2nd ed., Bailliere Tindall, London, England). Anti-fungal activity of synthetic histatin 5, histatin-based peptide 113, peptides based on portions of the amino acid sequences of histatin-based peptide 113 and peptides derived from histatin-based peptide 113 with specified amino acid substitutions was measured in assays designed to test the effectiveness of the peptides against the blastoconidia form of Candida (Table 1). These assays, which measure killing of blastoconidia of C. albicans, are described in Xu et al., which is herein incorporated by reference. (Xu, T. et al. (1991), Infect. Immun. 59(8):2549-2554).
A well-described strain of C. albicans was used in the bioassay. This strain, ATCC 44505, was originally isolated from the human oral cavity. Cultures were stored at 4° C. on Sabouraud dextrose agar plates (Difco Laboratories, Detroit, Mich.) until use. Stationary phase growth cells were obtained following growth at 30° C. for 18 h on Sabouraud dextrose agar plates. Colonies were harvested and suspended in 10 mM potassium phosphate buffer (PPB), pH 7.4.
To initiate log phase growth, an aliquot of stock C. albicans was suspended in Sabouraud dextrose broth (Difco) and incubated at 30° C. in a shaking water bath. The growth phase was determined by taking aliquots of the culture at one hour intervals to monitor the optical density (O.D.) at 560 nm. […] Log phase cells were harvested and utilized in the blastoconidia killing assay in a manner identical to that described for stationary phase cells. A final concentration of 10^5 cells/ml (either stationary or log phase fungus) was used in all assays.
The standard suspension buffer utilized in the blastospore killing assay was 0.01M PPB, pH 7.4. An alternate suspension buffer, N-2-hydroxyethylpiperazine-N'-2-ethanesulfonic acids (HEPES; Sigma Chemical Co., St. Louis, Mo.), pH 7.4, can also be utilized.
a. For the killing of blastoconidia assay, 50 μl aliquots of cells (2×10^5 cells/ml) diluted in suspension buffer were allowed to attach to a polystyrene 96-well micro-titer plate (COSTAR, Cambridge, Mass.) for 15 min at room temperature, and then incubated with an equal volume of a histatin or histatin peptide in suspension buffer for 1 h at 37° C. Controls were carried out in the absence of the histatin or histatin peptide. After incubation, wells were washed three times by centrifugation at 1,000 xg for 5 min and covered with aliquots of molten Sabouraud dextrose broth (Difco) containing 2% agarose (Sigma) at 45° C. The plate was then incubated at 30° C. for 8 h. Under such conditions, live cells will divide and begin to form colonies, while dead cells will remain as single cells. To determine the percentage of blastoconidia killed, a total of 100 single cells and/or colonies were counted under a Nikon inverted microscope at 400× magnification and the extent of killing was calculated using the formula: [1-(number of colonies in treated sample)/(number of colonies in control)]×100%.
Data were obtained by calculating the mean and standard deviation from triplicate assays.

Clostripain = biological target: T1, Clostripain (Hathewaya histolytica, UniProt P09870); assay: clostripain assay (BAPNA hydrolysis); type: biochemical, Clostridium histolyticum; conditions: read-out: Clostripain: IC50 (μM) for inhibition of Clostripain
T1 construct: purchased Sigma Chemical Corp., St. Louis, Mo
Experimental: Clostripain from Clostridium histolyticum (Sigma Chemical Corp., St. Louis, Mo.) was dissolved in deionized water to a concentration of 1 mg/mL (300 units/mg) and activated with the addition of 10 mmol/L DTT. To measure its hydrolytic activity, clostripain (6 units) was added to […] Hepes buffer, pH 7.5, containing 80 gmol/L BAPNA (benzoyl-arginine-p-nitroanilide), together with 5.6 μmol/L of histatin peptide inhibitor. As controls, assays were performed in the absence of any histatin peptide inhibitor. The activity was monitored continuously at 405 nm using a Molecular Devices VMax microtitre plate reader. The activities were determined from the maximum rates of substrate hydrolysis. Assays were done in duplicate, and the means normalized to the controls.

[2] = tested on: P. gingivalis hemagglutination of erythrocytes; assay: histatin peptide inhibition of hemagglutination assay; type: cell-based, Porphyromonas gingivalis; conditions: 2 hours at room temperature, visual examination
Experimental: The P. gingivalis strain of Section C.(1) was also used for the hemagglutination assays. The bacterial growth and culture conditions were also the same as those described in Section C.(1).
A classic assay was utilized to determine the hemagglutination potential of the P. gingivalis strain. Microorganisms were inoculated into BFB broth and cultured overnight, for approximately 24 hours at 37° C. under strictly anaerobic conditions with continuous agitation on a minishaker (IKA-Labortechnik, Staufen i. Br., Germany). The bacteria were harvested by centrifugatin at 3,000 r.p.m. for 20 min, at 4° C., washed twice in 0.01M phosphate buffered saline (PBS), pH 7.4, and suspended in the same buffer to an optical density of 1.0 at 550 nm. […] One ml of blood was drawn each time, washed twice in PBS at 1,000 r.p.m. for 10 min at 4° C. and suspended in the same buffer at a 2% (v/v) final concentration. Fifty μl of the bacterial suspension were serially diluted in PBS (two-fold steps) in a 96-well U-bottom microplate (Costar, Cambridge, Mass.). Fifty μl of the erythrocyte suspension were added to each well. Controls without bacteria or erythrocytes were included. The microplate was slightly shaken and incubated at room temperature for 2 hours. Visible examination on a white background was used to determine hemagglutination. The amount of hemagglutination was rated as none,(-), moderate (+/-), or strong (+). Erythrocytes in control wells with PBS precipitated to the center of the well, whereas erythrocyte-bacteria aggregates precipitated at the periphery of the bottom. The hemagglutination titer was expressed as the reciprocal of the highest dilution of the bacterial suspension providing visible hemagglutination.
Preparation of erythrocyte and bacterial suspensions were the same as for the hemagglutination assay. Fifty μl of histatin peptide solutions were diluted in PBS in a U-bottom microplate, at various two-fold concentrations with 600 nmole/ml being the highest. The bacterial concentration utilized was normally twice the minimal concentration which gave strong hemagglutination. Equal volumes of the bacterial suspension were poured into the wells containing the histatin peptides. Finally, 50 μl of erythrocyte suspension were added in each well. The microplate was slightly shaken and incubated at room temperature for 2 hours. Controls were made by replacement of the peptide dilutions with PBS only. The experiments were conducted at least twice. The lowest histatin peptide concentration without hemagglutination (complete inhibition) was determined upon visual examination. The highest final histatin peptide concentration utilized was 100 nmole/ml.

[3] = tested on: Porphyromonas gingivalis strain A7A1-28; assay: microdilution bacteriostatic assay (P. gingivalis growth inhibition); type: cell-based
Experimental: (a) The bacteria used in one investigation, Porphyromonas gingivalis strain A7A1-28, is a typical key pathogenic organism associated with destructive periodontal diseases. The bacteria were multiply subcultured in Enriched Todd Hewitt broth (ETHB, Difco Lab., Detroit, Mich.). Microorganisms were stored in the same broths containing 20% and 50% glycerol, at -20° C. and -70° C., respectively. These served as stock cultures from which all preparations originated.
Working stock cultures were maintained by weekly transfer to Brain Heart Infusion Anaerobic Sheep Blood Agar plates (BHIA, Becton Dickinson and Co., Cockeysville, Md.), and Trypticase Soy Anaerobic Sheep Blood Agar plates (TSA, Becton Dickinson and Co., Cockeysville, Md.). Plates were incubated for 3 to 4 days under strictly anaerobic conditions. For the bacteriostatic assay, bacteria were collected from plates, inoculated into the aforementioned broth and grown at 37° C., under strictly anaerobic conditions for 24 to 48 hours.
A modification of the typical microdilution assay (Rotilie et al., 1975) for the determination of minimal inhibitory concentration (MIC) of antimicrobial agents was utilized to investigate the bacteriostatic activity of the peptides. A standardized bacterial inoculum (P. gingivalis) was exposed to serially diluted antimicrobial peptides in an enriched broth medium that was suitable for the growth of anaerobic bacteria. The test was adapted for use in the 96-well microtiter plates. […] The modification introduced here was based on the spectrophotometric reading of the microtiter plate after incubation.
Microorganisms from cultures maintained in the aforementioned plates were inoculated into 5 ml of the above-mentioned broths and cultured overnight at 37° C. under strictly anaerobic conditions with continuous agitation on a minishaker (IKA-Labortechnik, Staufen i. Br., Germany). The bacteria were grown until reaching the late log phase and were then suspended in the same broths to an optical density (O.D.) of 0.1 at 560 nm. The peptides were diluted in 0.01M phosphate buffered saline (PBS), pH 7. Forty μl aliquots of peptide dilutions were added in each well of a U-bottom microtiter plate (Costar, Cambridge, Mass.) to give final concentrations of 2000, 1000, 500 and 250 μM. Twenty μl of bacterial inoculum was added to all the wells. Finally, 100 μl of the suitable broth were added to each well. The optical density of the wells of the microtiter plate was determined using a microplate reader set at 550 nm and the plate was then incubated under strictly anaerobic conditions for 24 hours. Controls were made by replacing the peptide dilutions with PBS alone. After the incubation, the mixtures in each well were mixed manually to resuspend sedimented bacteria and the plate was read again. The experiments were conducted twice every time. The biologic activity was calculated according to the formula:
100-[[(Fin ODexp-In ODexp)/(Fin ODctr-In ODctr)]×100]
In addition, the % increase in time to reach midlog phase growth was calculated.
The data presentation represent the means (±SEM) of at least 2 separate experiments.

T1 sequence (P09870 191-526): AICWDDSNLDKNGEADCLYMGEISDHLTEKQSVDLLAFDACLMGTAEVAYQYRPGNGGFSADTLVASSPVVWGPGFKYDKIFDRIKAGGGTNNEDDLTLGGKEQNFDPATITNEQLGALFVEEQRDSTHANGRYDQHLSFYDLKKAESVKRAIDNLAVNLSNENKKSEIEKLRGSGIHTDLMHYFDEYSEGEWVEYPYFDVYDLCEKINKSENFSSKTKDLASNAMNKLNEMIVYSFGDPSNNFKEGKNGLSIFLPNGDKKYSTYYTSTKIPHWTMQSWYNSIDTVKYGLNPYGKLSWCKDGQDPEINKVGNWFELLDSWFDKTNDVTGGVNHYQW
T1 sequence (P09870 51-181): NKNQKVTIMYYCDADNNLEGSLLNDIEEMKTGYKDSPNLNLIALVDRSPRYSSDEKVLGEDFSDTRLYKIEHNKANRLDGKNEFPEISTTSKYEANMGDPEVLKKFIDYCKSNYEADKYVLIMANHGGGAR

| Compound | C. albicans: LD50 (μM) for % killing [1] [µM] | IC50 (Clostripain) [µM] | Hemagglutination: lowest dose (μM) at which hemagglutination was observed using P. Gingivalis [2] [µM] | P. gingivalis: % inhibition at 500 μM dose (scoring) ([3]; 500 μM dose, highest response seen used in the scoring) | P. gingivalis: % increase in time to reach mid logphase growth (0.2 OD) ([3]; 2 mM dose) [%] |
| --- | --- | --- | --- | --- | --- |
| C[C@H](NC(=O)[C@H](Cc1c[nH]cn1)NC(=O)[C@H](CO)NC(=O)[C@@H](N)CC(=O)O)C(=O)N[C@@H](CCCCN)C(=O)N[C@@H](CCCNC(=N)N)C(=O)N[C@@H](Cc1c[nH]cn1)C(=O)N[C@@H](Cc1c[nH]cn1)C(=O)NCC(=O)N[C@@H](Cc1ccc(O)cc1)C(=O)N[C@@H](CCCCN)C(=O)N[C@@H](CCCNC(=N)N)C(=O)N[C@@H](CCCCN)C(=O)N[C@@H](Cc1ccccc1)C(=O)N[C@@H](Cc1c[nH]cn1)C(=O)N[C@@H](CCC(=O)O)C(=O)N[C@@H](CCCCN)C(=O)N[C@@H](Cc1c[nH]cn1)C(=O)N[C@@H](Cc1c[nH]cn1)C(=O)N[C@@H](CO)C(=O)N[C@@H](Cc1c[nH]cn1)C(=O)N[C@@H](CCCNC(=N)N)C(=O)NCC(=O)N[C@@H](Cc1ccc(O)cc1)C(=O)O [SynHis5, reference compound] | 3.0 | < 6.2 |  |  |  |
| KRHHGYKRKFHEKHH [peptide 105] | 5.0 |  | 6.25 | +++ (+++50-80%) |  |
| KRHHGYKRKFHEKHHSHR [peptide 103] | 4.5 |  | 1.56 |  | 56.6 |
| KRHHGYKRKFHEKHHSHRGYR [peptide 101] | 3.5 |  | 1.56 |  |  |
